Laboratory results taken from patent US9260376B2, “Compounds for use in the treatment of immune related inflammatory disease” (VENANTIUS LIMITED, priority 2011, dated 2016).
Marks after values point to notes of the source that are not given here.

How the values were obtained:
5% DSS murine colitis [1] = assay: Acute murine 5% DSS colitis model, Experiment 1; format: in vivo; conditions: for DAI at day 7: 10 mg/kg daily for 7 days, vehicle 9.3±0.51; for DAI on the day of autopsy versus vehicle controls: compound 6 3-30 mg/kg at each dose level; for colon pathology (histology scores) relative to vehicle: compound 6 at both 10 and 30 mg/Kg, prednisolone 5 mg/Kg; for colon IL1β level / colon IL6 level / colon TNFα level: day 7; for colon IL1β level: DSS-elevated 0.744±0.076 ng/mg; for colon IL6 level: DSS-elevated 1.057±0.1784 ng/mg; for colon TNFα level: DSS-elevated 1.478±0.378 ng/mg
Source text: The study is widely used as a model for studying the pathogenesis of UC and also for screening new therapeutic interventions for the treatment of UC.
In these studies, an acute colitis model was used, with 5% DSS administered in the drinking water of BALB/c mice. This dosage regime induces severe acute colitis, by days 7-8 mice had overt rectal bleeding and marked weight loss; unless sacrificed beforehand, all mice would have died by days 10-12.
Specific Pathogen-Free BALB/c mice, 6-8 weeks of age, were obtained from a commercial supplier (Harlan UK). Mice were fed irradiated diet and housed in individually ventilated cages (Tecniplast UK) under positive pressure.
DSS (5%) was dissolved in drinking water. Compounds were administered orally at a dose of 10 mg/kg or 30 mg/kg on days 0-7, and mice were culled on day 8 or day 9, depending on the severity of the disease. The mice were checked each day for morbidity and the weight of individual mice was recorded. Induction of colitis was determined upon autopsy, length of colon and histology. Colons were recovered and stored at −20° C. for immunological analysis. All of the compounds and experimental groups are randomly alphabetically labelled. Throughout experiments all data recording was performed in a blind manner. The codes on boxes/groups were not broken until after the data was analysed i.e. boxes labelled A, B, C etc were identified as untreated, DSS-treated, or DSS+compound-treated.
To quantify the extent of colitis, a disease activity index (DAI) was determined based on weight loss, faecal blood and stool consistency. A score was given for each parameter, with the sum of the scores used as the DAI. For each treatment group n=8.
All compounds were prepared for oral gavage (0.1 mL per os (p.o.) per 10 g body weight) as a suspension in 0.5% carboxymethyl cellulose/2% Tween 80, at a dose of 3-30 mg/Kg.

[2] = Partition coefficient (log P), HPLC method; format: physicochemical; conditions: reverse phase C18 HPLC; for Acid Log10 POW: acidic pH; for Basic Log10 POW: alkaline pH; for Neutral Log10 POW: neutral pH
Source text: The partition coefficient of compound 5 and related analogous compounds was investigated using the HPLC method (reverse phase C18 HPLC column) at neutral, acidic and alkaline pH.

5% DSS murine colitis [3] = assay: DSS murine colitis, Experiment 2 (Method 2); format: in vivo, BDF1 male mice; conditions: 10 ml/kg oral gavage daily day 0-6, 5-ASA 100 mg/kg; for DAI at day 7 in comparison with vehicle: 31 at 2 mg/ml, 47 at 4 mg/ml
Protocol: A total of 90 BDF1 (H. pylori-free, murine norovirus-free) male mice (Harlan Laboratories, UK) were used in the study. Animals were 8-10 weeks old on supply and used at 10-12 weeks of age. All mice were held in individually ventilated cages (IVCs) in an SPF (Specific Pathogen Free) barrier unit. The animals were identified by numbered cages and by ear punches.
DSS (MP Biomedicals 0216011090, lot# M2709) was prepared as a 5% (w/v) solution in the drinking water and made fresh daily on days 0 to 6 inclusive. DSS was administered from day 0 to day 7.
Test items were stored at −20° C. until the initiation of the study. Each test item was formulated as a homogenous suspension in 0.5% carboxymethyl cellulose (CMC, Sigma C4888) in sterile water (Sigma W3500, lot# RNBC1419), using an Ultraturax homogeniser, on study day −1. Compound 31 was formulated at 2 mg/ml and 47 was formulated at 4 mg/ml. After formulation the test item and the vehicle stocks anonymised with a letter code. All solutions were stored at 4° C. during the study, with 3.8 ml of each suspension being dispensed daily. Test items were administered by oral gavage, daily at 09.00 hrs, at 10 ml/kg, from study day 0 to study day 6.
5-ASA (5-Aminosalicylic acid, Sigma A3537, lot#051M1878V) was aliquoted into preweighed amounts between 71 and 84 mg. Like test item suspensions, these aliquots were anonymised by a letter code. Individual aliquots were formulated as a 10 mg/ml suspension in 0.5% CMC (Sigma C4888) in sterile water (Sigma W3500, lot# RNBC1419) on each day of dosing. 5-ASA was administered by oral gavage, daily at 09.00 hrs, at 10 ml/kg to give a dose of 100 mg/kg, from study day 0 to study day 6. 2.5 Clinical examinations
Any animal was culled if the weight loss was greater than 20%. Animal well-being was monitored daily. Once daily from day 0 until the end of the study, all mice were weighed and assessed for stool consistency, and the presence of overt blood in the stool or around the anus according to the criteria in 2.1
At necropsy, observation of stool in the large bowel was used to supplement in-life observation. […]

[4] = system: chronic colitis in IL10-/- mice; assay: Chronic IL10-/- colitis model; format: in vivo, IL10-/- BALB/c strain mice; conditions: 300 mg/kg/week oral, MWF
Protocol: FIG. 15: Is a group showing weight loss in IL10^−−/−− mice treated with vehicle or compound 6. Mice were administered compound 6 (300 mg/kg/week) or vehicle orally on a Monday/Wednesday/Friday (MWF) dosing schedule. Mice were ˜4 weeks of age at start of experiment and were treated for 9 weeks. Mice were weighed weekly and data are presented as Mean±SEM from 9-12 mice per group. Mice were monitored for overt disease, rectal prolapse, and moribund animals were humanely killed;
Mice with a deletion in the IL10^−−/−− gene spontaneously develop chronic colitis, with the age of onset and the severity of the disease being dependent on background mouse strain and the conditions in which the animals are housed. The onset of colitis in IL10^−−/−− mice housed under the conditions used in this study was also strain dependent, with an earlier onset and greater severity, in terms of mortality, in BALB/c strain mice relative to C57BL/6 strain animals. In this experiment, animals received oral treatment on a MWF regime over 9 weeks. Initially, both groups of mice progressively gain weight (FIG. 15). […] By week 9 animals had marked weight loss, with one moribund animal humanely killed on day 60 in each group. As other mice were losing weight and developing clinical symptoms of disease, both groups were culled at week 9 (day 63) and analysed.

[5] = Solubility in water and buffers; format: physicochemical
Protocol: The sodium salt, potassium salt, calcium salt, α-methylbenzylamine salt and N-Methyl-(D)-Glucamine salt were synthesised. The sodium and calcium salt were unsuccessful. The three salts of compound 5, named potassium salt, α-methylbenzylamine salt and N-Methyl-(D)-Glucamine salt were used for solubility and partition coefficient (log P) studies.
The solubility of the four compounds were determined: […]

[6] = compound 6 10 and 30 mg/kg groups, Prednisolone 5 mg/kg
[7] = compound 6 30 mg/kg, Prednisolone 5 mg/kg

O=C(O)c1ccc(C[C@@]2(C3=Cc4ccccc4C3)Cc3ccccc3[C@H]2O)cc1 (single isomer, unassigned) [Compound 2]
activity in 5% DSS murine colitis model (5% DSS murine colitis [1]; 30 mg/kg p.o. daily for 7 days): highly active

O=C(O)c1ccc(C[C@@]2(C3=Cc4ccccc4C3)Cc3ccccc3[C@@H]2O)cc1 [Compound 4, 4-(((1R,2S)-1-hydroxy-2,3-dihydro-1H,1′H-2,2′-biinden-2-yl)methyl)benzoic acid]
activity in 5% DSS murine colitis model (5% DSS murine colitis [1]; 30 mg/kg p.o. daily for 7 days): almost devoid of activity | disease activity index (DAI) at day 7 (5% DSS murine colitis [1]; 30 mg/kg p.o. daily for 7 days, vehicle controls 9.0±0.53): without activity

O=C(O)c1ccc(C[C@]2(C3=Cc4ccccc4C3)Cc3ccccc3[C@@H]2O)cc1 (single isomer, unassigned) [Compound 3]
DAI at day 6 versus vehicle (5% DSS murine colitis [1]; 30 mg/kg p.o.): no statistical (P>0.05) difference | activity in 5% DSS murine colitis model (5% DSS murine colitis [1]; 30 mg/kg p.o. daily for 7 days): minimal activity

O=C(O)c1ccc(C[C@]2(C3=Cc4ccccc4C3)Cc3ccccc3[C@H]2O)cc1 [Compound 5, 4-(((1S,2R)-1-hydroxy-2,3-dihydro-1H,1′H-2,2′-biinden-2-yl)methyl)benzoic acid]
DAI at day 7 (5% DSS murine colitis [1]): no significant (P>0.05) effect | activity in 5% DSS murine colitis model (5% DSS murine colitis [1]; 30 mg/kg p.o. daily for 7 days): highly active | Acid Log10 POW [2]: 3.9 | Basic Log10 POW [2]: 3.7 | Neutral Log10 POW [2]: 3.7

C[C@]12C=CC(=O)C=C1CC[C@@H]1[C@@H]2[C@@H](O)C[C@@]2(C)[C@H]1CC[C@]2(O)C(=O)CO [Prednisolone, reference compound]
DAI on the day of autopsy versus vehicle controls (5% DSS murine colitis [1]; Prednisolone 5 mg/kg): significantly (P<0.01; ANOVA; Dunnett Multiple Comparison Test) reduced DAI scores | inhibition of colon shortening (colon length) versus vehicle, day 7 (5% DSS murine colitis [1]; [6]): did have a significant effect | colon pathology (histology scores) relative to vehicle (5% DSS murine colitis [1]): no significant improvement | colon IL1β level (5% DSS murine colitis [1]; [7]): reduced (p<0.05) | colon IL6 level (5% DSS murine colitis [1]; [7]): reduced (p<0.05) | colon TNFα level (5% DSS murine colitis [1]; [7]): reduced (p<0.05)

NCC(=O)O[C@@H]1c2ccccc2C[C@@]1(Cc1ccc(C(=O)O)cc1)C1=Cc2ccccc2C1 [Compound 31, 4-{[(1′S,2′S)-1′-(glycyloxy)-1′,3′-dihydro-1H,2′H-2,2′-biinden-2′-yl]methyl}benzoic acid]
DAI at day 7 in comparison with vehicle (5% DSS murine colitis [3]): reduced DAI comparable or equal to 5ASA

O=C(O)c1ccc(C[C@@]2(C3=Cc4ccccc4C3)Cc3ccccc3[C@H]2O)cc1 [Compound 6, 6-(Methylamino)hexane-1,2,3,4,5-pentanol 4-(((1S,2S)-1-hydroxy-2,3-dihydro-1H,1′H-2,2′-biinden-2-yl)methyl)benzoate]
inhibition of colon shortening (colon length) versus vehicle, day 7 (5% DSS murine colitis [1]; 3 mg/kg): did not have a significant effect | therapeutic efficacy in the DSS model (5% DSS murine colitis [1]; compound 6 30 mg/Kg versus prednisolone 5 mg/Kg): comparable, or better, efficacy relative to prednisolone | colon length compared with Prednisolone, day 7 (5% DSS murine colitis [1]; compound 6 30 mg/kg, P<0.05): significantly better than Prednisolone | DAI on the day of autopsy versus vehicle controls (5% DSS murine colitis [1]; Prednisolone 5 mg/kg): significantly (P<0.05-P<0.01) lower DAI than vehicle controls | inhibition of colon shortening (colon length) versus vehicle, day 7 (5% DSS murine colitis [1]; [6]): did have a significant effect | colon pathology (histology scores) relative to vehicle (5% DSS murine colitis [1]): dose-dependent and highly statistically significant reduction | colon IL1β level (5% DSS murine colitis [1]; [7]): significant (P<0.05, 30 mg/kg) and dose-dependant reduction | colon IL6 level (5% DSS murine colitis [1]; [7]): significant (P<0.05, 30 mg/kg) and dose-dependant reduction | colon TNFα level (5% DSS murine colitis [1]; [7]): significant (P<0.05, 30 mg/kg) and dose-dependant reduction | overt reactions in mice (5% DSS murine colitis [1]; oral daily for 7 days, 3, 10 and 30 mg/Kg): no overt reactions | Acid Log10 POW [2]: 2.6 | Basic Log10 POW [2]: 4.3 | Neutral Log10 POW [2]: 3.5 | survival over the 9 weeks, Kaplan-Meier analysis versus vehicle [4]: no statistical difference in survival | weight gain ([4]; vehicle stopped gaining weight from week 5): maintained weight gain until week 8 | Serum Amyloid A (SAA) levels relative to vehicle ([4]; week 9): significantly (P<0.05; Student's t-test) reduced | extent of colon pathology (histology score) relative to vehicle ([4]; week 9): significantly reduced

CNCC(O)C(O)C(O)C(O)CO.O=C(O)c1ccc(C[C@]2(C3=Cc4ccccc4C3)Cc3ccccc3[C@H]2O)cc1 [Compound 7, 6-(Methylamino)hexane-1,2,3,4,5-pentanol 4-(((1S,2R)-1-hydroxy-2,3-dihydro-1H,1′H-2,2′-biinden-2-yl)methyl)benzoate]
DAI at day 7 (5% DSS murine colitis [1]): no significant (P>0.05) effect | solubility, Milli-RO H20 ([5]; Milli-RO water, listed as Compound 5 N-Methyl-D-Glucamine salt): >60,000* μg/mL | solubility, pH 4.0 Buffer ([5]; pH 4.0 buffer): 0.14 μg/mL | solubility, pH 7.0 Buffer ([5]; pH 7.0 buffer, listed as Compound 5 N-Methyl-D-Glucamine salt): >60,000* μg/mL | solubility, pH 9.0 Buffer ([5]; pH 9.0 buffer, listed as Compound 5 N-Methyl-D-Glucamine salt): >60,000* μg/mL | Acid Log10 POW [2]: 3.8 | Basic Log10 POW [2]: 3.5 | Neutral Log10 POW [2]: 3.5

O=C(Nc1ccc(O)c(C(=O)O)c1)c1ccc(C[C@@]2(C3=Cc4ccccc4C3)Cc3ccccc3[C@H]2O)cc1 [Compound 47, 2-hydroxy-5-(4-(((1S,2S)-1-hydroxy-2,3-dihydro-1H,1′H-[2,2′-biinden]-2-yl)methyl)benzamido)benzoic acid]
DAI at day 7 in comparison with vehicle (5% DSS murine colitis [3]): reduced DAI comparable or equal to 5ASA | loss of body weight at day 7 in comparison with vehicle control (5% DSS murine colitis [3]; 47 formulated at 4 mg/ml): does not result in an increase in loss of body weight
